Measured values taken from patent US20120022151A1, “METHOD FOR PREVENTING DAMAGE TO NUCLEAR MEMBRANE OF SKIN CELL BY ADMINISTERING AMENTOFLAVONE” (Amorepacific Corporation, priority 2010, published 2012).

Experiments:
Assay type in all cases: cell-based
[1] = test system: progerin (mutant lamin A); experiment: Western blot of progerin (mutant lamin A) induced by UVB radiation; conditions: 5 μM amentoflavone prior to UVB 100 mJ/cm^2; cultured 6 days; cell extract from subject (FIG. 2)
Protocol: (§1) Cells of subjects […] were distributed in a 4-well chamber slide holding a medium prepared by adding 1% LSGS and 100 IU penicillin G to 106 medium at 100,000 cells/well. The cells were divided into a UVB-untreated negative control group, a UVB-treated group and a UVB/amentoflavone-treated group. The next day, the medium was replaced with 106 medium containing 1%
(§2) FBS. The amentoflavone-treated group was treated with 5 μM amentoflavone prior to UVB radiation. 24 hours later, after washing the well with PBS, UVB was irradiated at 100 mJ/cm^2 to the test groups. Then, after treating again with 106 medium containing 1% FBS, the cells were cultured at 37° C. for 6 days. The treated cells were subjected to western blot and immunofluorescence staining. For western blot, the cells were lysed using RIPA buffer (Sigma) and proteins were quantitated according to the Lowry's method. 10 μg of each protein was run on 4-12% Nupage gel (Invitrogen) and then transferred to NC membrane. The membrane was blocked with 5% BSA and reacted O/N at 4° C. with the lamin A mutant antibodies, progerin (Abcam) and p-H2AX (Millipore), diluted at 1:300 and 1:200, respectively, with 5% BSA. […] Then, after washing 3 times for 10 minutes with PBST, bands were detected using ECL and LAS3000.

phosphorylated H2AX = experiment: Immunofluorescence staining of phosphorylated H2AX after UVB radiation; conditions: 5 μM amentoflavone prior to UVB 100 mJ/cm^2; cultured 6 days; cells of the subject (FIG. 3)
Protocol: as §1
as §2, with “LAS3000. […]” for “LAS3000.”

cells of the subject = experiment: Immunofluorescence staining of lamin A: nuclear damage after UVB radiation; conditions: 5 μM amentoflavone prior to UVB 100 mJ/cm^2; cultured 6 days; cells of the subject (FIG. 3)
Protocol: as §1
as §2, with “LAS3000. […]” for “LAS3000.”

## O=c1cc(-c2ccc(O)c(-c3c(O)cc(O)c4c(=O)cc(-c5ccc(O)cc5)oc34)c2)oc2cc(O)cc(O)c12 [Amentoflavone]
[1]
  UVB-induced increase of progerin (mutant lamin A), western blot: decreased
Phosphorylated H2AX
  expression of phosphorylated H2AX, immunofluorescence: reduced
Cells of the subject
  structure of the cell nucleus (nuclear damage caused by lamin A defects), immunofluorescence: retained
